Experimental data as given in ChEMBL document CHEMBL1142603, “Manzamine B and E and ircinal A related alkaloids from an Indonesian Acanthostrongylophora sponge and their activity against infectious, tropical parasitic, and Alzheimer's diseases” (J Nat Prod, 2006).
Converted amounts (≈) assume the structure as drawn. The source made the active and inactive calls. The calls are words filed in the database; no cut-off is given here.

Columns and labels:
[1] = tested on: Staphylococcus aureus; assay: Antibacterial activity against methicillin-resistant Staphylococcus aureus; format: functional, organism-based
[2] = tested on: Vero; assay: Cytotoxicity against african green monkey Vero cells at 4.76 ug/mL by neutral red assay; format: cell-based; settings: chlorocebus sabaeus
[3] = tested on: Plasmodium falciparum; assay: Antimalarial activity after 72 hrs against chloroquine-resistant Plasmodium falciparum W2 in erythrocytes at […] by LDH reporter assay; format: functional, organism-based
[4] = tested on: Mycobacterium intracellulare; assay: Antibacterial activity against Mycobacterium intracellular by alamar blue assay; format: functional, organism-based
[5] = tested on: Plasmodium falciparum; assay: Antimalarial activity after 72 hrs against chloroquine-sensitive Plasmodium falciparum D6 in erythrocytes at […] by LDH reporter assay; format: functional, organism-based
[6] = molecular target: Beta-secretase 1 (Homo sapiens) (UniProt P56817); assay: Inhibition of human recombinant BACE1 by FRET-based assay
Chain of Beta-secretase 1 (Homo sapiens) (P56817 whole entry): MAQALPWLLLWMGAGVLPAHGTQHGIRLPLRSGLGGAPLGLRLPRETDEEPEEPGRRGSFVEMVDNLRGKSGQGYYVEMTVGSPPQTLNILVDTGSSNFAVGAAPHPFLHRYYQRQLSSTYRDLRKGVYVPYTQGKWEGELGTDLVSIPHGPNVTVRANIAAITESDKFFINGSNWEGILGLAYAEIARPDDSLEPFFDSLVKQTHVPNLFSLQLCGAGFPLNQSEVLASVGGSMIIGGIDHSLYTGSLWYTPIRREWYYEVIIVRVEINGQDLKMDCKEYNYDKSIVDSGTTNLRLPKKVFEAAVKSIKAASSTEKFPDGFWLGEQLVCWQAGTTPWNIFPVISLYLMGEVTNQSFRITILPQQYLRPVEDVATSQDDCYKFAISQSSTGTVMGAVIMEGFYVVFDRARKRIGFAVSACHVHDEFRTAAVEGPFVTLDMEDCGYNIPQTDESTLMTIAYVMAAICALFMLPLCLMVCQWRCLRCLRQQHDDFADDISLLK

[7] = tested on: Cryptococcus neoformans; assay: Antifungal activity against Cryptococcus neoformans; format: functional, organism-based
[8] = tested on: Human immunodeficiency virus 1; assay: Antiviral activity against HIV1 3B assessed as reverse transcriptase activity by enzyme immunoassay; format: functional, organism-based; settings: Human immunodeficiency virus 1, 3B
[9] = tested on: Staphylococcus aureus; assay: Antibacterial activity against Staphylococcus aureus; format: functional, organism-based
[10] = tested on: Leishmania donovani; assay: Antileishmanial activity against Leishmania donovani at 40 ug/mL after 72 hrs by alamar blue assay; format: functional, organism-based
[11] = molecular target: T1, Acetylcholinesterase (Bos taurus) (UniProt P23795); assay: Inhibition of bovine AChE
T1 sequence (whole entry): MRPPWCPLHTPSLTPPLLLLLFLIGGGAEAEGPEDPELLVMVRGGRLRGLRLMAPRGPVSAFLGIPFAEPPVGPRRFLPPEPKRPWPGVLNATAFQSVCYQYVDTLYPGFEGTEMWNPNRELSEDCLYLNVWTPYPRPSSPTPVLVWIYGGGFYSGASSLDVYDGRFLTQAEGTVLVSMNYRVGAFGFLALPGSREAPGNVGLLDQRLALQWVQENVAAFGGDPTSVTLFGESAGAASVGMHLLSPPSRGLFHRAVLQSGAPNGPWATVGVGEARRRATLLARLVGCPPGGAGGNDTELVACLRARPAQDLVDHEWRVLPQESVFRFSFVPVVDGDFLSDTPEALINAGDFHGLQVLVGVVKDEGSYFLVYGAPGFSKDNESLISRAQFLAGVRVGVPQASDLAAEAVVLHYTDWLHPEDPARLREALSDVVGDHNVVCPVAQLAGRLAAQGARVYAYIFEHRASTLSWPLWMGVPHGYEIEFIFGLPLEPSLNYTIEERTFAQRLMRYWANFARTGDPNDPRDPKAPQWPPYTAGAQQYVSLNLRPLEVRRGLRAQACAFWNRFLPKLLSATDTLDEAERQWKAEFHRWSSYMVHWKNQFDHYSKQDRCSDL

[12] = tested on: Leishmania donovani; assay: Antileishmanial activity against Leishmania donovani after 72 hrs by alamar blue assay; format: functional, organism-based
[13] = tested on: Mycobacterium tuberculosis; assay: Antituberculosis activity against Mycobacterium tuberculosis H37Rv after 24 hrs by alamar blue assay; format: functional
[14] = tested on: Vero; assay: Cytotoxicity against african green monkey Vero cells by neutral red assay; format: cell-based; settings: chlorocebus sabaeus
[15] = tested on: Plasmodium falciparum; assay: Antimalarial activity after 72 hrs against chloroquine-sensitive Plasmodium falciparum D6 in erythrocytes by LDH reporter assay; format: functional, organism-based; settings: D6, 72 h
[16] = tested on: Plasmodium falciparum; assay: Antimalarial activity after 72 hrs against chloroquine-resistant Plasmodium falciparum W2 in erythrocytes by LDH reporter assay; format: functional, organism-based; settings: W2, 72 h
[17] = molecular target: Glycogen synthase kinase-3 beta (Homo sapiens) (UniProt P49841); assay: Inhibition of human recombinant GSK3-beta assessed as incorporation of [33P]gammaATP into G2S peptide at 25 uM
Chain of Glycogen synthase kinase-3 beta (Homo sapiens) (P49841 whole entry, looked up): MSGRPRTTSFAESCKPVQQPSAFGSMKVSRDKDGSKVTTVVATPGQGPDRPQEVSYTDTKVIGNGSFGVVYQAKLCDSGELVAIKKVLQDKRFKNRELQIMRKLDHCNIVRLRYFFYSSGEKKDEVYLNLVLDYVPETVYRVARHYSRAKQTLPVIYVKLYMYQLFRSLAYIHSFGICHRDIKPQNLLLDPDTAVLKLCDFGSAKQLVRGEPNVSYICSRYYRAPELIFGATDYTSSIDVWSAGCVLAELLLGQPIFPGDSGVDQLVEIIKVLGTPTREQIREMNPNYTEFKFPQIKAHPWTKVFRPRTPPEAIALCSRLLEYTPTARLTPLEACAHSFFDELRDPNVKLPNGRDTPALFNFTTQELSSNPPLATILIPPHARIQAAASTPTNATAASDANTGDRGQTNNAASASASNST

[18] = tested on: Voltage-gated calcium channel; assay: Blocking of calcium channel in human SH-SY5Y cells assessed as inhibition of KCL depolarization-induced cytosolic calcium increase at 1 uM; format: cell-based
[19] = tested on: SH-SY5Y; assay: Cytotoxicity against human SH-SY5Y cells at 5 uM; format: cell-based
[20] = molecular target: Glycogen synthase kinase-3 beta (Homo sapiens) (UniProt P49841); assay: Inhibition of GSK3-beta in human SH-SY5Y cells assessed as inhibition of tau phosphorylation at Ser396 at 5 uM after 24 hrs by ELISA sandwich method; format: cell-based

| SMILES | Activity [1] | Activity [2] | Activity [3] | Activity [4] | Activity [5] | Activity [6] | Activity [7] | IC50 [8] [µg/mL] | Activity [9] | Activity [10] | Activity [11] | IC50 [12] [µg/mL] | IC90 [12] [µg/mL] | MIC [13] [µg/mL] | IC50 [15] [µg/mL] | IC50 [16] [µg/mL] | also measured |
| --- | --- | --- | --- | --- | --- | --- | --- | --- | --- | --- | --- | --- | --- | --- | --- | --- | --- |
| O=C1CCCN2[C@@H]3[C@@]45CN6CCCC/C=C\CC[C@@]3(C=C(c3nccc7c3[nH]c3ccccc37)[C@@H]4CC6)O[C@]2(CC1)C5 | inactive | Non-toxic | inactive | inactive | inactive | inactive | inactive | 17.5 (≈ 31.1 µM) | inactive | inactive | inactive |  |  |  |  |  |  |
| O=C1CC[C@H]2C[C@]34CN5CCCC/C=C\CC[C@@]6(C=C(c7nccc8c7[nH]c7ccccc78)[C@@H]3CC5)O[C@H](CC1)N2[C@H]46 | inactive | Non-toxic | inactive | inactive | inactive | inactive | inactive |  | inactive |  | inactive | 18 (≈ 32 µM) | 40 (≈ 71.1 µM) |  |  |  |  |
| O=C1CCCN2[C@@H](CC1)C[C@]13CN4CCCC/C=C\CC[C@](O)(C=C(c5nccc6c5[nH]c5ccc(O)cc56)[C@@H]1CC4)[C@H]23 |  | Non-toxic |  |  |  | inactive |  |  |  |  | inactive | 2.5 (≈ 4.3 µM) | 4.3 (≈ 7.4 µM) | 0.4 (≈ 0.689 µM) | 0.78 (≈ 1.34 µM) | 0.87 (≈ 1.5 µM) | IC50 [4]: 3.5 µg/mL (≈ 6.03 µM); IC50 [7]: 5.5 µg/mL (≈ 9.47 µM); IC50 [14]: 4.3 µg/mL (≈ 7.4 µM) |
| O=C1CCCN2[C@@H]3[C@@]45CN6CCCC/C=C\CC[C@@]3(C=C(c3nccc7c3[nH]c3ccc(O)cc37)[C@@H]4CC6)O[C@]2(CC1)C5 | inactive | Non-toxic | inactive | inactive | inactive | inactive | inactive |  | inactive | inactive | inactive |  |  |  |  |  |  |
| O=C1CCCN2[C@H]3[C@]45CN6CCCC/C=C\CC[C@]3(C=C(c3nccc7c3[nH]c3c(O)cccc37)[C@H]4CC6)O[C@]2(CC1)C5 | inactive | Non-toxic |  | inactive |  | inactive | inactive | 14.9 (≈ 25.7 µM) | inactive | inactive | inactive |  |  | 12.5 (≈ 21.6 µM) | 0.84 (≈ 1.45 µM) | 1.1 (≈ 1.9 µM) |  |
| Oc1cccc2c1[nH]c1c(C3=C[C@@]4(O)CC/C=C\CCCCN5CC[C@@H]3[C@]3(CC6/C=C\CCCCN6[C@H]34)C5)nccc12 (some centres undefined) |  |  |  |  |  | inactive |  | 0.59 (≈ 1.04 µM) |  |  | inactive | 6.2 (≈ 11 µM) | 11 (≈ 19.5 µM) | 0.9 (≈ 1.59 µM) | 0.006 (≈ 0.0106 µM) | 0.008 (≈ 0.0142 µM) | IC50 [1]: 4 µg/mL (≈ 7.08 µM); inhibition [17]: 86.7%; IC50 [4]: 1 µg/mL (≈ 1.77 µM); inhibition (INH) [18]: 20%; IC50 [7]: 3 µg/mL (≈ 5.31 µM); IC50 [14]: 1.1 µg/mL (≈ 1.95 µM); Activity [19]: Non-toxic; Activity [20]: Active; IC50 [9]: 0.9 µg/mL (≈ 1.59 µM) |
| C1=C\CC[C@]23CN4CCCC/C=C\CC[C@@]5(O[C@H]5[C@@H](c5nccc6c5[nH]c5ccccc56)[C@@H]2CC4)[C@@H]3NCCCC/1 |  |  |  |  |  | inactive |  |  |  |  | inactive |  |  |  |  |  |  |
| O=CC1=C[C@@]2(O)CC/C=C\CCCCN3CC[C@@H]1[C@]1(C[C@@H]4/C=C\CCCCN4[C@H]12)C3 |  |  |  |  |  |  |  |  |  |  |  |  |  |  |  |  | inhibition [17]: 0% |
| O=CC1=C[C@]23CC/C=C\CCCCN4CC[C@@H]1[C@]1(C[C@@H]5/C=C\CCC[C@@H](O2)N5[C@H]13)C4 |  |  |  |  |  | inactive |  |  |  |  | inactive |  |  |  |  |  |  |
| Oc1cccc2c1[nH]c1c([C@H]3[C@@H]4CCN5CCCC/C=C\CC[C@@]6(O[C@@H]36)[C@@H]3NCCCC/C=C\CC[C@@]34C5)nccc12 |  |  |  |  |  | inactive |  |  |  |  | inactive |  |  |  |  |  |  |
